# In patent US9856216B2, “Compounds as TNIK, IKKε and TBK1 inhibitors and pharmaceutical composition comprising same” (GREEN CROSS CORPORATION, priority 2015, dated 2018):
# What was measured:
# TBK1 = biological target: T1, TBK1 (Homo sapiens, UniProt Q9UHD2); test: ADP-Glo Kinase Assay, inhibition activity on TBK1; format: biochemical
# T1 construct: purchased Promega V3991
# T1 sequence (Q9UHD2 1-729): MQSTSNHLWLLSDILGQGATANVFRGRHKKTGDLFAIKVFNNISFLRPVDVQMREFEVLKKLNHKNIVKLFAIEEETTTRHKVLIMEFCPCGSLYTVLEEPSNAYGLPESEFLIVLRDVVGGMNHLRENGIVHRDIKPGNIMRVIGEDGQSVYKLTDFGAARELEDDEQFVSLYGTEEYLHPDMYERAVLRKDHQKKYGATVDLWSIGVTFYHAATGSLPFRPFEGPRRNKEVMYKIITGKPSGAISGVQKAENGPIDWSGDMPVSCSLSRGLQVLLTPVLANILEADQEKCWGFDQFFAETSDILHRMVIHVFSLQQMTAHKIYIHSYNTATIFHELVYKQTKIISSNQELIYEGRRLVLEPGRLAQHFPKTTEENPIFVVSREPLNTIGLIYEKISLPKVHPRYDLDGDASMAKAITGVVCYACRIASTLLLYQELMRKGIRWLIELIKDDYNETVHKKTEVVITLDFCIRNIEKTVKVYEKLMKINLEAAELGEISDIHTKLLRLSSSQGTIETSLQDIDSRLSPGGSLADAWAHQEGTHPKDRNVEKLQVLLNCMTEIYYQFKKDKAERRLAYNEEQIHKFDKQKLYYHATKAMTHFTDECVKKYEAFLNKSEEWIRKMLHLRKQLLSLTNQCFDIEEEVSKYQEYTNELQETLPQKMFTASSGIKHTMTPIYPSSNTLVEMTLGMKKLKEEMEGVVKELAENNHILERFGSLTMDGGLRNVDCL
# Procedure: (§1) The inhibition activities on TNIK, IKKε and TBK1 were measured by a luminometer, TNIK/IKKε/TBK1 Kinase Enzyme System (Promega, Ca# V4158; Invitrogen, PR8031B, Promega, Ca# V3991) and ADP-Glo Kinase Assay using ADP-Glo™ Kinase Analysis Kit (Promega, Ca# V9101) and a kinase reaction buffer [40 mM Tris(pH 7.5), 20 mM MgCl2, 0.1 mg/mL BSA] in accordance with the manufacturer's protocol.
# IKKε = biological target: T2, IKKε (Homo sapiens, UniProt Q14164); test: ADP-Glo Kinase Assay, inhibition activity on IKKε; format: biochemical
# T2 construct: purchased Invitrogen PR8031B
# T2 sequence (Q14164 1-716): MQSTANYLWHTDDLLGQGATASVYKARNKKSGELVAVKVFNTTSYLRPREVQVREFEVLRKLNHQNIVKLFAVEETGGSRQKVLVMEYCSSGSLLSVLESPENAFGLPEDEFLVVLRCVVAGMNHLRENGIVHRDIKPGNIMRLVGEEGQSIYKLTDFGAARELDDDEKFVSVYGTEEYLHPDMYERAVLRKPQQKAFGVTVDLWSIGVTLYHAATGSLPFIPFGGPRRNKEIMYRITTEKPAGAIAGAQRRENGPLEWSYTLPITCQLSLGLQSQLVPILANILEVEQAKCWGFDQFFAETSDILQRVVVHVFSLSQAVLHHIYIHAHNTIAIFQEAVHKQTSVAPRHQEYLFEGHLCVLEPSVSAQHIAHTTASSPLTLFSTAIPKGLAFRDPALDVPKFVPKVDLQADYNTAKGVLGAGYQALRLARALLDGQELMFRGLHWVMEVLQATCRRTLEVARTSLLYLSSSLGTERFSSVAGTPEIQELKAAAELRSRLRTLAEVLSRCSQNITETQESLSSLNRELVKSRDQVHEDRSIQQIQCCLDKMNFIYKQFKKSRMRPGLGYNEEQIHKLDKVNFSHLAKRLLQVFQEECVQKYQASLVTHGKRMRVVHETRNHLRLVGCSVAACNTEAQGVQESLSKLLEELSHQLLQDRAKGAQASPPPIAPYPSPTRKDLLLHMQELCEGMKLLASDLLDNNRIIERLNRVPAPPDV
# Procedure: as §1
smiles,measurement,setting,value
"COc1cccc(Nc2cc(-c3ccc(N)c4c3CNC4=O)ccn2)c1 [Example 68, 7-Amino-4-(2-((3-methoxyphenyl)amino)pyridin-4-yl) isoindolin-1-one]",IC50,TBK1,1240 nM
same,IC50,IKKε,2640 nM
"COc1cccc(Nc2ccnc(-c3ccc(N)c4c3CNC4=O)c2)c1 [Example 69, 7-Amino-4-(4-((3-methoxyphenyl)amino)pyridin-2-yl) isoindolin-1-one]",IC50,TBK1,> 10000 nM
"COc1cccc(Nc2nccc(-c3ccc(N)c4c3CNC4=O)n2)c1 [Example 70, 7-Amino-4-(2-((3-methoxyphenyl)amino)pyrimidin-4-yl) isoindolin-1-one]",IC50,TBK1,51 nM
same,IC50,IKKε,51 nM
Cn1cc(Nc2nccc(-c3ccc(N)c4c3CNC4=O)n2)cn1 [Example 71],IC50,TBK1,150 nM
same,IC50,IKKε,160 nM
"Nc1ccc(-c2ccnc(Nc3ccccc3)n2)c2c1C(=O)NC2 [Example 72, 7-Amino-4-(2-(phenylamino)pyrimidin-4-yl)isoindolin-1-one]",IC50,TBK1,90 nM
same,IC50,IKKε,280 nM
"Nc1ccc(-c2ccnc(Nc3cccc(F)c3)n2)c2c1C(=O)NC2 [Example 73, 7-Amino-4-(2-((3-fluorophenyl)amino)pyrimidin-4-yl) isoindolin-1-one]",IC50,TBK1,35 nM
same,IC50,IKKε,350 nM
"Nc1ccc(-c2ccnc(Nc3ccc(F)cc3)n2)c2c1C(=O)NC2 [Example 74, 7-Amino-4-(2-((4-fluorophenyl)amino)pyrimidin-4-yl) isoindolin-1-one]",IC50,TBK1,43 nM
same,IC50,IKKε,560 nM
"COc1ccc(Nc2nccc(-c3ccc(N)c4c3CNC4=O)n2)cc1 [Example 75, 7-Amino-4-(2-((4-methoxyphenyl)amino)pyrimidin-4-yl) isoindolin-1-one]",IC50,TBK1,110 nM
same,IC50,IKKε,360 nM
"CC(=O)Nc1ccc(Nc2nccc(-c3ccc(N)c4c3CNC4=O)n2)cc1 [Example 76, N-(4-((4-(7-amino-1-oxoisoindolin-4-yl)pyrimidin-2-yl)amino)phenyl)acetamide]",IC50,TBK1,100 nM
same,IC50,IKKε,350 nM
"CC(=O)Nc1cccc(Nc2nccc(-c3ccc(N)c4c3CNC4=O)n2)c1 [Example 77, N-(3-((4-(7-amino-1-oxoisoindolin-4-yl)pyrimidin-2-yl)amino)phenyl)acetamide]",IC50,TBK1,27 nM
same,IC50,IKKε,200 nM
"COc1cccc(Nc2cc(-c3ccc(N)c4c3CNC4=O)ncn2)c1 [Example 78, 7-Amino-4-(6-((3-methoxyphenyl)amino)pyrimidin-4-yl) isoindolin-1-one]",IC50,TBK1,190 nM
same,IC50,IKKε,1390 nM
"Nc1ccc(-c2c[nH]c3ncc(-c4ccccc4)cc23)c2c1C(=O)NC2 [Example 79, 7-Amino-4-(5-phenyl-1H-pyrrolo[2,3-b]pyridin-3-yl) isoindolin-1-one]",IC50,TBK1,640 nM
"Nc1ccc(-c2ccnc3[nH]ccc23)c2c1C(=O)NC2 [Example 80, 7-Amino-4-(1H-pyrrolo[2,3-b]pyridin-4-yl)isoindolin-1-one]",IC50,TBK1,9230 nM
same,IC50,IKKε,> 10000 nM
"CN1CCN(c2nccc(-c3ccc(N)c4c3CNC4=O)n2)CC1 [Example 81, 7-Amino-4-(2-(4-methylpiperazin-1-yl)pyrimidin-4-yl) isoindolin-1-one]",IC50,TBK1,> 10000 nM
same,IC50,IKKε,> 10000 nM
"Nc1ccc(-c2ccnc(N3CCOCC3)n2)c2c1C(=O)NC2 [Example 82, 7-Amino-4-(2-morpholinopyrimidin-4-yl)isoindolin-1-one]",IC50,TBK1,> 10000 nM
same,IC50,IKKε,> 10000 nM
"Cc1ccc(Nc2nccc(-c3ccc(N)c4c3CNC4=O)n2)cc1 [Example 83, 7-Amino-4-(2-(p-tolylamino)pyrimidin-4-yl)isoindolin-1-one]",IC50,TBK1,380 nM
same,IC50,IKKε,870 nM
"Cc1cccc(Nc2nccc(-c3ccc(N)c4c3CNC4=O)n2)c1 [Example 84, 7-Amino-4-(2-(m-tolylamino)pyrimidin-4-yl)isoindolin-1-one]",IC50,TBK1,200 nM
same,IC50,IKKε,440 nM
"CC(=O)Nc1ccc(-c2cnc3[nH]cc(-c4ccc(N)c5c4CNC5=O)c3c2)cc1 [Example 85, N-(4-(3-(7-amino-1-oxoisoindolin-4-yl)-1H-pyrrolo[2,3-b]pyridine-5-yl)phenyl)acetamide]",IC50,TBK1,72 nM
same,IC50,IKKε,160 nM
"Nc1ccc(-c2c[nH]c3ncc(-c4ccc(CN5CCOCC5)s4)cc23)c2c1C(=O)NC2 [Example 86, 7-Amino-4-(5-(5-(morpholinomethyl)thiophen-2-yl)-1H-pyrrolo[2,3-b]pyridin-3-yl)isoindolin-1-one]",IC50,TBK1,32 nM
same,IC50,IKKε,56 nM
"COc1cccc(Nc2nccc(-c3ccc(NC(C)=O)c4c3CNC4=O)n2)c1 [Example 162, N-(7-(2-((3-methoxyphenyl)amino)pyrimidin-4-yl)-3-oxoisoindolin-4-yl)acetamide]",IC50,TBK1,100 nM
same,IC50,IKKε,630 nM
"CC(=O)Nc1ccc(-c2ccnc(Nc3cccc(F)c3)n2)c2c1C(=O)NC2 [Example 163, N-(7-(2-((3-fluorophenyl)amino)pyrimidin-4-yl)-3-oxoisoindolin-4-yl) acetamide]",IC50,TBK1,4000 nM
same,IC50,IKKε,> 10000 nM
"CC(=O)Nc1ccc(-c2ccnc(Nc3cccc(C)c3)n2)c2c1C(=O)NC2 [Example 164, N-(3-oxo-7-(2-(m-tolylamino)pyrimidin-4-yl)isoindolin-4-yl) acetamide]",IC50,TBK1,350 nM
same,IC50,IKKε,830 nM
"CC(=O)Nc1ccc(-c2ccnc(Nc3ccc(C)cc3)n2)c2c1C(=O)NC2 [Example 165, N-(3-oxo-7-(2-(p-tolylamino)pyrimidin-4-yl)isoindolin-4-yl) acetamide]",IC50,TBK1,> 10000 nM
same,IC50,IKKε,> 10000 nM
"CCC(=O)Nc1ccc(-c2ccnc(Nc3cccc(OC)c3)n2)c2c1C(=O)NC2 [Example 166, N-(7-(2-((3-methoxyphenyl)amino)pyrimidin-4-yl)-3-oxoisoindolin-4-yl)propionamide]",IC50,TBK1,94 nM
same,IC50,IKKε,> 10000 nM
"COc1cccc(Nc2nccc(-c3ccc(N(C)C)c4c3CNC4=O)n2)c1 [Example 266, 7-(Dimethylamino)-4-(2-((3-methoxyphenyl)amino)pyrimidin-4-yl)isoindolin-1-one]",IC50,TBK1,750 nM
same,IC50,IKKε,1960 nM
"CN(C)c1ccc(-c2ccnc(Nc3cccc(F)c3)n2)c2c1C(=O)NC2 [Example 267, 7-(Dimethylamino)-4-(2-((3-fluorophenyl)amino)pyrimidin-4-yl)isoindolin-1-one]",IC50,TBK1,3980 nM
same,IC50,IKKε,5510 nM
"CCCCNc1ccc(-c2ccnc(Nc3cccc(OC)c3)n2)c2c1C(=O)NC2 [Example 268, 7-(Butylamino)-4-(2-((3-methoxyphenyl)amino)pyrimidin-4-yl)isoindolin-1-one]",IC50,TBK1,320 nM
same,IC50,IKKε,880 nM
"CCCCN(C)c1ccc(-c2ccnc(Nc3cccc(OC)c3)n2)c2c1C(=O)NC2 [Example 269, 7-(Butyl(methyl)amino)-4-(2-((3-methoxyphenyl)amino)pyrimidin-4-yl)isoindolin-1-one]",IC50,TBK1,2550 nM
same,IC50,IKKε,5970 nM
"CCCCN(C)c1ccc(-c2ccnc(Nc3cccc(OC)c3)n2)c2c1C(=O)N(C)C2 [Example 270, 7-(Butyl(methyl)amino)-4-(2-((3-methoxyphenyl)amino)pyrimidin-4-yl)-2-methylisoindolin-1-one]",IC50,TBK1,> 10000 nM
same,IC50,IKKε,> 10000 nM
